# Measurements as given in US10286000B2, “Retinoid X receptor-gamma agonists and retinoid X receptor-alpha antagonists for treatment of cancer” (St. Jude Children's Research Hospital, Inc., priority 2013, dated 2019).
# Tested on: HCT116 xenograft
# Test: HCT116 xenograft model in NSG mice (bioluminescence imaging)
# Format: in vivo
# Description: (A) 1×10^6 luciferase-expressing HCT116 cells, alone or with 2×10^7 NKL cells, were subcutaneously injected into 8- to 10-week-old NSG mice (n=4). […] HCT116 xenograft growth was analyzed by performing bioluminescence imaging on day 15. (B) 1×10^6 HCT116 cells were subcutaneously injected into 8- to 10-week-old NSG mice. […] Tumor sections were prepared for ULBP2 immunohistochemical staining on day 15. (C) NKG2D expression on the cell surface of YT-INDY and YT-INDY-NKG2D cells was analyzed by flow cytometry. […] (D) 1×10^6 luciferase-expressing HCT116 cells were subcutaneously injected into 8- to 10-week-old NSG mice with either 1×10^6 YT-INDY or YT-INDY-NKG2D cells (n=8 per group). […] HCT116 xenograft growth was analyzed by performing bioluminescence imaging on day 15. (E) MICA-B and ULBP1-3 expressions on the cell surface of HCT116 or HCT116-ΔNKG2DLs cells were analyzed by flow cytometry. […] (F) 1×10^6 luciferase-expressing HCT116 or HCT116-ΔNKG2DLs cells were subcutaneously injected into 8- to 10-week-old NSG mice with 1×10^6 YT-INDY-NKG2D cells (n=8 per group). […] HCT116 xenograft growth was analyzed by performing bioluminescence imaging on day 10. […] 1×10^6 each of luciferase-expressing HCT116 cells and YT-INDY-NKG2D were injected subcutaneously into the mice on day 0. HCT116 xenograft growth was analyzed by performing bioluminescence imaging on day 3. * P<0.05, ** P<0.01, *** P<0.005, **** P<0.0005.
# Luciferase-expressing HCT116 and HT29 cells were generated by lentiviral transduction of the cells with a CMV promoter-driven luciferase expression construct engineered from the pLL3.7 vector. […] Bioluminescence imaging was performed in a Xenogen imaging system to monitor tumor growth and the data were analyzed using Living Image software (Caliper LifeSciences). For the lung metastasis model using HT29 cells, lungs were harvested for bioluminescence imaging and then fixed in 10% neutral buffered formalin, paraffin embedded, sectioned, and stained with hematoxylin and eosin. A total of six lung sections at 100-μm intervals were collected for the observation of pulmonary nodules. For the hepatic metastasis model, 0.5×10^6 of luciferase-expressing HCT116 cells were intrasplenically implanted into 6-8 week-old NSG mice.
smiles,measurement,setting,value
"CC(=O)S[C@@H]1CC2=CC(=O)CC[C@]2(C)[C@H]2CC[C@@]3(C)[C@@H](CC[C@@]34CCC(=O)O4)[C@H]12 [SPIR, spironolactone]",tumor growth in the presence of YT-INDY-NKG2D,1.25 mg/mouse i.p.,strongly suppressed the tumor growth
same,"tumor growth, mice bearing NKL cells","HCT116 plus NKL cells, 1.25 mg/mouse i.p. twice a week for 2 weeks",suppressed tumor growth considerably
same,"tumor growth, SPIR alone","HCT116 without NKL cells, 1.25 mg/mouse i.p. twice a week for 2 weeks",did not affect tumor growth
same,HCT116 xenograft growth in YT-INDY-bearing mice,NKG2D-negative NK cell line,did not reduce the HCT116 xenograft growth
same,"tumor susceptibility to NK cell killing triggered by SPIR, HCT116-ΔNKG2DLs","NKG2DL-deficient HCT116 vs HCT116, YT-INDY-NKG2D",significantly reduced tumor susceptibility to NK cell killing
same,ULBP2 expression in the HCT116 xenografts,immunohistochemical staining day 15,significantly enhanced ULBP2 expression
same,tumor development after pretreatment,pretreating twice a week for 2 weeks before HCT116 and YT-INDY-NKG2D implantation,greatly inhibited tumor development
